# Data taken from patent US12692254B2, “Benzimidazole inhibitors of PAD enzymes” (BRISTOL-MYERS SQUIBB COMPANY, priority 2018, dated 2026).
# Molecular target: human PAD4 (hPAD4) (Homo sapiens, UniProt Q9UM07)
# Assay: RFMS human PAD4 functional assay (rapid-fire mass spectrum)
# Type: biochemical
# Conditions: 5 nM hPAD4 enzyme, 250 μM BAEE, 50 μM Calcium; 30 min preincubation, 90 min reaction at 37° C.
# In short: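 PAD4 (10 nM) preincubated 30 min with compound (top final 50 μM), then BAEE substrate added in pH 7.5 HEPES buffer with DTT, 50 μM calcium, TPEN; 90 min at 37° C. After TCA quench, citrulline derivatized with phenyl glyoxal (4 mM final, 30 min, 37° C) and quantified by RapidFire MS against internal standard.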
# Sequence of human PAD4 (hPAD4) (Q9UM07 whole entry): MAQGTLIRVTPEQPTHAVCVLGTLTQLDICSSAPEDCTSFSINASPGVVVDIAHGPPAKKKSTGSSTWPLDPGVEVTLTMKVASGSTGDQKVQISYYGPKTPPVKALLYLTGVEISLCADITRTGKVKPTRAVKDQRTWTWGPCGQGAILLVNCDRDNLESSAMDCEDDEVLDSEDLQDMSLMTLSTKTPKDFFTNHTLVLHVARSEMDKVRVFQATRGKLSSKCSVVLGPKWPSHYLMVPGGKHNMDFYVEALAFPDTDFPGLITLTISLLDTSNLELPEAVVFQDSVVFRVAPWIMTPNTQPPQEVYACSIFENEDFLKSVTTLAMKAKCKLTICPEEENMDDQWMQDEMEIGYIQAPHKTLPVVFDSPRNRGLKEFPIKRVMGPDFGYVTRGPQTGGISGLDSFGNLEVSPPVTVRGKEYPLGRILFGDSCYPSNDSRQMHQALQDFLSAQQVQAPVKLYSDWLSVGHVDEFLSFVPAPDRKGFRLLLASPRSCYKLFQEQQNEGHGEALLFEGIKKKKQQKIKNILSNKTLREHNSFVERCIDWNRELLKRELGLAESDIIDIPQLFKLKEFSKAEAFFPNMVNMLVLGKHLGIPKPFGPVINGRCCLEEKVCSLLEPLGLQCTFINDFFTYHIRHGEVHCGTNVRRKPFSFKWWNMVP
row,Compound,IC50 [nM]
1,"COc1cc(C(=O)N2C[C@H]3CC[C@@H]2[C@@H]3N)cc2nc(-c3cc4cc(Cl)ccc4n3C)n(CC3CN(c4ncccn4)C3)c12 [Example 62, (1R,4R,7R)-2-[2-(5-chloro-1-methyl-1H-indol-2-yl)-7-methoxy-1-{[1-(pyrimidin-2-yl)azetidin-3-yl]methyl}-1H-1,3-benzodiazole-5-carbonyl]-2-azabicyclo[2.2.1]heptan-7-amine]",192
2,"COc1cc(C(=O)N2C[C@H]3CC[C@@H]2[C@@H]3N)cc2nc(-c3cc4cccnc4n3CC3CC3)n(C3CN(C(=O)c4cnc(NCC(C)(C)O)nc4)C3)c12 [Example 185, 1-{[5-(3-{5-[(1R,4R,7R)-7-amino-2-azabicyclo[2.2.1]heptane-2-carbonyl]-2-[1-(cyclopropylmethyl)-1H-pyrrolo[2,3-b]pyridin-2-yl]-7-methoxy-1H-1,3-benzodiazol-1-yl}azetidine-1-carbonyl)pyrimidin-2-yl]amino}-2-methylpropan-2-ol]",316
3,"COc1cc(C(=O)N2CC3CCC2[C@@H]3N)cc2nc(-c3cc4cccnc4n3CC3CC3)n(CC3CN(C(=O)c4cccc(F)c4F)C3)c12 (stereo partly drawn) [Example 423, (7R)-2-{2-[1-(cyclopropylmethyl)-1H-pyrrolo[2,3-b]pyridin-2-yl]-1-{[1-(2,3-difluorobenzoyl)azetidin-3-yl]methyl}-7-methoxy-1H-1,3-benzodiazole-5-carbonyl}-2-azabicyclo[2.2.1]heptan-7-amine]",23
4,"COc1cc(C(=O)N2CC3CCC2[C@@H]3N)cc2nc(-c3cc4cccnc4n3CC3CC3)n(CC3CCN(C(=O)c4ncccn4)CC3)c12 (stereo partly drawn) [Example 236, (1R,4R.,7R)-2-{2-[1-(cyclopropylmethyl)-1H-pyrrolo[2,3-b]pyridin-2-yl]-7-methoxy-1-{[1-(pyrimidine-2-carbonyl)piperidin-4-yl]methyl}-1H-1,3-benzodiazole-5-carbonyl}-2-azabicyclo[2.2.1]heptan-7-amine]",402
5,"COc1cc(C(=O)N2C[C@H](N)C[C@@H](F)C2)cc2nc(-c3cc4ccccc4n3CC3CC3)n(Cc3ccon3)c12 [Example 278, (3R,5R)-1-{2-[1-(cyclopropylmethyl)-1H-indol-2-yl]-7-methoxy-1-[(1,2-oxazol-3-yl)methyl]-1H-1,3-benzodiazole-5-carbonyl)-5-fluoropiperidin-3-amine]",460
6,"COc1cc(C(=O)N2CC3CCC2[C@@H]3N)cc2nc(-c3cc4cccnc4n3CC3CC3)n(CC3CN(C(=O)c4ccc(Cl)cc4)C3)c12 (stereo partly drawn) [Example 429, (7R)-2-(1-{[1-(4-chlorobenzoyl)azetidin-3-yl]methyl}-2-[1-(cyclopropylmethyl)-1H-pyrrolo[2,3-b]pyridin-2-yl]-7-methoxy-1H-1,3-benzodiazole-5-carbonyl)-2-azabicyclo[2.2.1]heptan-7-amine]",29
7,"Cc1cc(C(=O)N2CC3CCC2[C@@H]3N)cc2nc(-c3cc4ccccc4n3CC3CC3)n(CC3CN(C(=O)c4ccccc4)C3)c12 (stereo partly drawn) [Example 450, (7R)-2-{1-[(1-benzoylazetidin-3-yl)methyl]-2-[1-(cyclopropylmethyl)-1H-indol-2-yl]-7-methyl-1H-1,3-benzodiazole-5-carbonyl}-2-azabicyclo[2.2.1]heptan-7-amine]",46
8,"COc1cc(C(=O)N2CC3CCC2[C@@H]3N)cc2nc(-c3cc4cccnc4n3CC3CC3)n(C3CN(S(=O)(=O)C(F)(F)F)C3)c12 (stereo partly drawn) [Example 340, (1R,,4R,7R)-2-{2-[1-(cyclopropylmethyl)-1H-pyrrolo[2,3-b]pyridin-2-yl]-7-methoxy-1-(1-trifluoromethanesulfonylazetidin-3-yl)-1H-1,3-benzodiazole-5-carbonyl}-2-azabicyclo[2.2.1]heptan-7-amine]",1260
9,"COc1cc(C(=O)N2C[C@H]3CC[C@@H]2[C@@H]3N)cc2nc(-c3cc4cccnc4n3C)n(CC3CN(c4cncc(C#N)n4)C3)c12 [Example 40, 6-[3-({5-[(1R,4R,7R)-7-amino-2-azabicyclo[2.2.1]heptane-2-carbonyl]-7-methoxy-2-{1-methyl-1H-pyrrolo[2,3-b]pyridin-2-yl}-1H-1,3-benzodiazol-1-yl}methyl)azetidin-1-yl]pyrazine-2-carbonitrile]",98
10,"N[C@@H]1[C@@H]2CC[C@H]1N(C(=O)c1cc(Cl)c3c(c1)nc(-c1cc4cccnc4n1CC1CC1)n3CC1CN(C(=O)c3ccncc3)C1)C2 [Example 131, (1R,4R,7R)-2-{7-chloro-2-[1-(cyclopropylmethyl)-1H-pyrrolo[2,3-b]pyridin-2-yl]-1-{[1-(pyridine-4-carbonyl)azetidin-3-yl]methyl}-1H-1,3-benzodiazole-5-carbonyl}-2-azabicyclo[2.2.1]heptan-7-amine]",138
11,"COc1cc(C(=O)N2CC3CCC2[C@@H]3N)cc2nc(-c3cc4ccccc4n3CC3CC3)n(CC3CN(C(=O)[C@@H]4C[C@H]4c4ccccc4)C3)c12 (stereo partly drawn) [Example 162, (1R,4R,7R)-2-{2-[1-(cyclopropylmethyl)-1H-indol-2-yl]-7-methoxy-1-({1-[(1R,2R)-2-phenylcyclopropanecarbonyl]aze-tidin-3-yl}methyl)-1H-1,3-benzodiazole-5-carbonyl}-2-azabicyclo[2.2.1]heptan-7-amine]",25
12,"COc1nccc(N2CC(n3c(-c4cc5cccnc5n4CC4CC4)nc4cc(C(=O)N5C[C@H]6CC[C@@H]5[C@@H]6N)cc(OC)c43)C2)n1 [Example 71, (1R,4R,7R)-2-{2-[1-(cyclopropylmethyl)-1H-pyrrolo[2,3-b]pyridin-2-yl]-7-methoxy-1-[1-(2-methoxypyrimidin-4-yl)azetidin-3-yl]-1H-1,3-benzodiazole-5-carbonyl}-2-azabicyclo[2.2.1]heptan-7-amine]",111
13,"COc1cc(C(=O)N2C[C@H]3CC[C@@H]2[C@@H]3N)cc2nc(-c3cc4ccccc4n3CC3CC3)n(CC3CN(C(=O)c4ccc(C#N)cc4)C3)c12 [Example 91, 4-[3-({5-[(1R,4R,7R)-7-amino-2-azabicyclo[2.2.1]heptane-2-carbonyl]-2-[1-(cyclopropylmethyl)-1H-indol-2-yl]-7-methoxy-1H-1,3-benzodiazol-1-yl}methyl)azetidine-1-carbonyl]benzonitrile]",9
14,"COc1cc(C(=O)N2CC3CCC2[C@@H]3N)cc2nc(-c3cc4cccnc4n3CC3CC3)n(C3CCN(C(=O)c4ccnc(Cl)c4)CC3)c12 (stereo partly drawn) [Example 239, (1R,4R.,7R)-2-{1-[1-(2-chloropyridine-4-carbonyl)piperidin-4-yl]-2-[1-(cyclopropylmethyl)-1H-pyrrolo[2,3-b]pyridin-2-yl]-7-methoxy-1H-1,3-benzodiazole-5-carbonyl}-2-azabicyclo[2.2.1]heptan-7-amine]",927
15,"COc1cc(C(=O)N2C[C@H]3CC[C@@H]2[C@@H]3N)cc2nc(-c3cc4cccnc4n3CC3CC3)n(C3CN(C(=O)c4ccnc(C)n4)C3)c12 [Example 97, (1R,4R,7R)-2-{2-[1-(cyclopropylmethyl)-1H-pyrrolo[2,3-b]pyridin-2-yl]-7-methoxy-1-[1-(2-methylpyrimidine-4-carbonyl)azetidin-3-yl]-1H-1,3-benzodiazole-5-carbonyl}-2-azabicyclo[2.2.1]heptan-7-amine]",63
16,"COc1cc(C(=O)N2C[C@H]3CC[C@@H]2[C@@H]3N)cc2nc(-c3cc4cccnc4n3C)n(CC3CN(c4cncnc4C#N)C3)c12 [Example 60, 5-[3-({5-[(1R,4R,7R)-7-amino-2-azabicyclo[2.2.1]heptane-2-carbonyl]-7-methoxy-2-{1-methyl-1H-pyrrolo[2,3-b]pyridin-2-yl}-1H-1,3-benzodiazol-1-yl}methyl)azetidin-1-yl]pyrimidine-4-carbonitrile]",171
17,"COc1cc(C(=O)N2CC3CCC2[C@@H]3N)cc2nc(-c3cc4cccnc4n3CC3CC3)n(CC3CN(c4cc(Cl)cnc4C#N)C3)c12 (stereo partly drawn) [Example 38, 3-[3-({5-[(1R,4R,7R)-7-amino-2-azabicyclo[2.2.1]heptane-2-carbonyl]-2-[1-(cyclopropylmethyl)-1H-pyrrolo[2,3-b]pyridin-2-yl]-7-methoxy-1H-1,3-benzodiazol-l-yl}methyl)azetidin-1-yl]-5-chloropyridine-2-carbonitrile]",94
18,"COc1cc(C(=O)N2CC3CCC2[C@@H]3N)cc2nc(-c3cc4cccnc4n3CC3CC3)n(CC3CN(C(=O)c4cccc(Cl)c4)C3)c12 (stereo partly drawn) [Example 456, (7R)-2-(1-{[1-(3-chlorobenzoyl)azetidin-3-yl]methyl}-2-[1-(cyclopropylmethyl)-1H-pyrrolo[2,3-b]pyridin-2-yl]-7-methoxy-1H-1,3-benzodiazole-5-carbonyl)-2-azabicyclo[2.2.1]heptan-7-amine]",59
19,"COc1cc(C(=O)N2C[C@H]3CC[C@@H]2[C@@H]3N)cc2nc(-c3cc4cccnc4n3CC3CC3)n(CC3CN(c4nc(C#N)ncc4C#N)C3)c12 [Example 14, 4-[3-({5-[(1R,4R,7R)-7-amino-2-azabicyclo[2.2.1]heptane-2-carbonyl]-2-[1-(cyclopropylmethyl)-1H-pyrrolo[2,3-b]pyridin-2-yl]-7-methoxy-1H-1,3-benzodiazol-1-yl}methyl)azetidin-1-yl]pyrimidine-2,5-dicarbonitrile]",46
20,"COc1cc(C(=O)N2C[C@H]3CC[C@@H]2[C@@H]3N)cc2nc(-c3cc4ccccc4n3CC3CC3)n(CC3CN(C(=O)c4ccccc4)C3)c12 [Example 145, (1R,4R,7R)-2-{1-[(1-benzoylazetidin-3-yl)methyl]-2-[1-(cyclopropylmethyl)-1H-indol-2-yl]-7-methoxy-1H-1,3-benzodiazole-5-carbonyl}-2-azabicyclo[2.2.1]heptan-7-amine]",18
21,"COc1cc(C(=O)N2C[C@H]3CC[C@@H]2[C@@H]3N)cc2nc(-c3cc4cccnc4n3CC3CC3)n(CC3CN(C(=O)c4ccnc(C#N)c4)C3)c12 [Example 183, 4-[3-({5-[(1R,4R,7R)-7-amino-2-azabicyclo[2.2.1]heptane-2-carbonyl]-2-[1-(cyclopropylmethyl)-1H-pyrrolo[2,3-b]pyridin-2-yl]-7-methoxy-1H-1,3-benzodiazol-1-yl}methyl)azetidine-1-carbonyl]pyridine-2-carbonitrile]",276
